Consider six compounds from ChEMBL document CHEMBL4808200, “Identification of a Series of N-Methylpyridine-2-carboxamides as Potent and Selective Inhibitors of the Second Bromodomain (BD2) of the Bromo and Extra Terminal Domain (BET) Proteins” (J Med Chem, 2021).

The nature of data set [1]: Volume of distribution at steady state in Wistar Han rat at 1 mg/kg, iv administered as 1 hr infusion or 3 mg/kg, po administered via gavage by LC-MS/MS analysis. The data set is classed as ADME, organism-based. To be noted: in vivo, read-out: Vdss.
Data set [2] in a line: Oral bioavailability in Wistar Han rat at 3 mg/kg administered via gavage by LC-MS/MS analysis. The data set is classed as ADME, organism-based. To be noted: in vivo.
A short description of data set [3]: Permeability of the compound at pH 7.4 by artificial membrane permeability assay. Type of data set: ADME. The note with it: PAMPA, read-out: permeability.
Data set [4] is described as follows: Solubility of the compound in pH 6.5 FaSSIF at […] measured after 16 hrs by HPLC analysis. The data set is classed as physicochemical.
Data set [5] is described as follows: Clearance in Beagle dog at 0.5 mg/kg, iv administered as 1 hr infusion on day 1 and day 7 to achieve a target dose of 1 mg/kg by LC-MS/MS analysis. Type of data set: ADME, organism-based, Canis lupus familiaris. The note with it: in vivo, dose 0.5-1 mg/kg, time 7 day.
The nature of the next data set: physchem. The note with it: buffer, pH 7.4.
A short description of data set [6]: Volume of distribution at steady state in Beagle dog at 0.5 mg/kg, iv administered as 1 hr infusion on day 1 and day 7 to achieve a target dose of 1 mg/kg by LC-MS/MS analysis. The data set is classed as ADME, organism-based, Canis lupus familiaris. To be noted: in vivo, dose 0.5-1 mg/kg, time 7 day, read-out: Vdss.
Data set [7] in a line: Intrinsic clearance in human cryopreserved pooled hepatocytes at 0.5 uM measured up to 120 mins by LC-MS/MS analysis. The data set is classed as ADME, tissue-based, Hepatocyte. To be noted: 2 h.
Data set [8] can be described thus: Half life in Beagle dog at 0.5 mg/kg, iv administered as 1 hr infusion on day 1 and day 7 to achieve a target dose of 1 mg/kg by LC-MS/MS analysis. Type of data set: ADME, organism-based, Canis lupus familiaris. The note with it: in vivo, dose 0.5-1 mg/kg, time 7 day.
Data set [9] in a line: Clearance in Wistar Han rat at 1 mg/kg, iv administered as 1 hr infusion or 3 mg/kg, po administered via gavage by LC-MS/MS analysis. The data set is classed as ADME, organism-based. The note with it: in vivo.
Data set [10] in a line: Oral bioavailability in Beagle dog. The data set is classed as ADME, organism-based, Canis lupus familiaris. The note with it: in vivo.
A short description of data set [11]: Intrinsic clearance in Beagle dog cryopreserved pooled hepatocytes at 0.5 uM measured up to 120 mins by LC-MS/MS analysis. Type of data set: ADME, tissue-based, Canis lupus familiaris, Hepatocyte. The note with it: 2 h.
The nature of data set [12]: Intrinsic clearance in Wistar Han rat cryopreserved pooled hepatocytes at 0.5 uM measured up to 60 mins by LC-MS/MS analysis. Type of data set: ADME, tissue-based, Hepatocyte. The note with it: 1 h.
Data set [13] can be described thus: Unbound clearance in Wistar Han rat at 1 mg/kg, iv administered as 1 hr infusion or 3 mg/kg, po administered via gavage by LC-MS/MS analysis. Type of data set: ADME, organism-based. To be noted: in vivo.
Data set [14] in a line: Unbound clearance in Beagle dog at 0.5 mg/kg, iv administered as 1 hr infusion on day 1 and day 7 to achieve a target dose of 1 mg/kg by LC-MS/MS analysis. Type of data set: ADME, organism-based, Canis lupus familiaris. The note with it: in vivo, 168 h, dose 0.5-1 mg/kg, time 7 day.
The nature of data set [15]: Half life in Wistar Han rat at 1 mg/kg, iv administered as 1 hr infusion or 3 mg/kg, po administered via gavage by LC-MS/MS analysis. Type of data set: ADME, organism-based. To be noted: in vivo.
Data set [16] can be described thus: Clearance in Beagle dog at 0.5 mg/kg, iv administered as 1 hr infusion on day 1 and day 7 to achieve a target dose of 1 mg/kg by LC-MS/MS analysis relative to liver blood flow. The data set is classed as ADME, organism-based, Canis lupus familiaris. The note with it: in vivo, 168 h, dose 0.5-1 mg/kg, time 7 day.

Each structure is given as a SMILES string. In brackets after ≈: the same amount, converted by molar mass.

In the case of `CNC(=O)c1cc(C(=O)N[C@H]2[C@@H]3COC[C@@H]32)cc(C(OC)c2ccccc2)n1` (some centres not stated), the values for the Vd in [1] and in data set [6] were 2.1 L/kg and 0.9 L/kg, respectively. Moreover, the values for the bioavailability in data set [2] and in data set [10] were 17% and 65%, respectively. Also, the Papp in data set [3] turned out to be 14.5 ×10⁻⁶ cm/s. The compound further gave a solubility at 16 h in data set [4] of 575 µg/mL (≈ 1510 µM). Moreover, the clearance in data set [5] was determined as 9.4 mL/min/kg; in data set [9], 52 mL/min/kg. The chromatographic logD in the data set “physchem” turned out to be 3.4. Moreover, the CLH is below 0.45 mL/min/g in data set [7], below 0.65 mL/min/g in data set [11] and 1.27 mL/min/g in [12]. Besides, the half-life is 72 min in data set [8] and 90 min in [15]. Besides, the CL free in [13] was 142 mL/min/kg; in [14], 23 mL/min/kg.
Turning to `CNC(=O)c1cc(C(=O)N[C@H]2C[C@@H]2C)cc([C@@H](O)c2ccccc2)n1`, the results for the Vd in data set [1] and in [6] were 2.2 L/kg and 2.1 L/kg, respectively. Besides, the bioavailability in data set [2] was 34%; in data set [10] it was 35%. In data set [3], the Papp was found to be 18.3 ×10⁻⁶ cm/s. Also, the solubility at 16 h in [4] was above 1000 µg/mL. For the same compound, the values for the clearance in data set [5] and in data set [9] were 32 mL/min/kg and 29 mL/min/kg, respectively. In the data set “physchem”, this compound displayed a chromatographic logD of 3.2. Further, the figures for the CLH in [7], in data set [11] and in data set [12] were 0.8 mL/min/g, 0.81 mL/min/g and below 0.8 mL/min/g, respectively. Besides, the half-life in data set [8] was 36 min; in [15] it was 120 min. Also, the CL free amounted to 96 mL/min/kg in data set [13] and 102 mL/min/kg in data set [14].
On to `CNC(=O)c1cc(C(=O)N[C@H]2[C@@H]3COC[C@@H]32)cc([C@@H](C)c2ccccc2)n1`, for which the Vd was 1.7 L/kg in [1] and 1.3 L/kg in [6]. Moreover, the bioavailability was found to be 39% in data set [2] and 14% in data set [10]. In [3], the Papp was 37 ×10⁻⁶ cm/s. In data set [4], the solubility at 16 h was 117 µg/mL (≈ 320 µM). Also, the clearance in data set [5] was determined as 44 mL/min/kg; in [9], 52 mL/min/kg. In addition, the chromatographic logD in “physchem” was 4.1. Also, the figures for the CLH in data set [7], in [11] and in data set [12] were below 0.45 mL/min/g, below 0.65 mL/min/g and 2.03 mL/min/g, respectively. Besides, the half-life in data set [8] and in data set [15] was 24 min each time. Further, the CL free stood at 147 mL/min/kg in data set [13] and 171 mL/min/kg in [14].
Turning to `CNC(=O)c1cc(C(=O)N[C@H]2[C@@H]3COC[C@@H]32)cc(Cc2ccccc2)n1`, the Vd worked out at 1.7 L/kg in data set [1] and 1.4 L/kg in data set [6]. Besides, the values for the bioavailability in [2] and in data set [10] were 62% and 10%, respectively. In addition, in data set [3], the Papp was 21.5 ×10⁻⁶ cm/s. Besides, the concentration in solution in data set [4] (solubility at 16 h) was 112 µg/mL (≈ 319 µM). Also, the clearance came to 43 mL/min/kg in data set [5] and 22 mL/min/kg in [9]. Further, the chromatographic logD in the data set “physchem” was 3.5. Also, the CLH was below 0.45 mL/min/g in [7], 0.76 mL/min/g in data set [11] and 1.4 mL/min/g in [12]. Besides, the half-life in [8] was 24 min; in data set [15], 18 min. The CL free is 168 mL/min/kg in [13] and 122 mL/min/kg in data set [14]. The compound also registered a QH in data set [16] of 80%.
Regarding `CNC(=O)c1cc(C(=O)N[C@H]2C[C@@H]2C)cc(Cc2cccc3[nH]ccc23)n1`, the Vd turned out to be 1.2 L/kg in data set [1] and 1.6 L/kg in [6]. Further, the bioavailability in data set [2] stood at 48%; in data set [10], 55%. The Papp in data set [3] turned out to be 18.3 ×10⁻⁶ cm/s. Besides, in [4], the concentration in solution (solubility at 16 h) came to 127 µg/mL (≈ 350 µM). Besides, the clearance in data set [5] came to 13 mL/min/kg; in [9], 18 mL/min/kg. Moreover, the chromatographic logD in “physchem” worked out at 3. Also, the CLH in data set [7] is below 0.45 mL/min/g; in data set [11], below 0.65 mL/min/g; in data set [12], 1.06 mL/min/g. The half-life in data set [8] was 132 min; in data set [15] it was 72 min. Further, the CL free was 69 mL/min/kg in [13] and 88 mL/min/kg in [14].
`CNC(=O)c1cc(C(=O)N[C@H]2[C@@H]3COC[C@@H]32)cc(Cc2cccc3[nH]ccc23)n1`: the Vd in [1] was 1.8 L/kg; in data set [6], 0.9 L/kg. Further, the bioavailability in data set [2] was 69%; in data set [10] it was 41%. Moreover, the Papp in data set [3] is 16 ×10⁻⁶ cm/s. This compound had a solubility at 16 h in [4] of 91 µg/mL (≈ 233 µM). Also, the results for the clearance in [5] and in data set [9] were 4 mL/min/kg and 39 mL/min/kg, respectively. In the data set “physchem”, the chromatographic logD was 3.1. Moreover, the CLH in data set [7] was below 0.45 mL/min/g; in data set [11], below 0.65 mL/min/g; in [12], 2.05 mL/min/g. For the same compound, the half-life in data set [8] is 150 min; in [15] it was 42 min. The CL free in data set [13] was 206 mL/min/kg; in data set [14], 19 mL/min/kg.

What is called bioavailability is dose-corrected exposure relative to a reference, in per cent. A word on the solubility: it is how much of the substance goes into solution per volume. A low value points to a poorly soluble substance. What is called chromatographic logD is a lipophilicity value derived from retention on a column. The low end stands for a more hydrophilic compound, the high end for a more lipophilic compound. The term half-life denotes the time in which the quantity being followed falls by half. Lower therefore signals fast loss.
